In patent US20230192705A1, “SHP2 INHIBITORS, COMPOSITIONS AND USES THEREOF” (Betta Pharmaceuticals Co., Ltd, priority 2020, published 2023):
Like-named read-outs stand apart in the source and are kept apart here.

Key:
[1] = target: T1, hERG channel (Homo sapiens, UniProt Q12809); assay: Patch clamp assay to test the effect of compound on hERG channel; type: cell-based; details: manual patch clamp, HEK 293 cells expressed with hERG, concentration for half maximum effect
T1 construct: expressed in transfected cells; host or cells: HEK-293
T1 sequence (Q12809 whole entry): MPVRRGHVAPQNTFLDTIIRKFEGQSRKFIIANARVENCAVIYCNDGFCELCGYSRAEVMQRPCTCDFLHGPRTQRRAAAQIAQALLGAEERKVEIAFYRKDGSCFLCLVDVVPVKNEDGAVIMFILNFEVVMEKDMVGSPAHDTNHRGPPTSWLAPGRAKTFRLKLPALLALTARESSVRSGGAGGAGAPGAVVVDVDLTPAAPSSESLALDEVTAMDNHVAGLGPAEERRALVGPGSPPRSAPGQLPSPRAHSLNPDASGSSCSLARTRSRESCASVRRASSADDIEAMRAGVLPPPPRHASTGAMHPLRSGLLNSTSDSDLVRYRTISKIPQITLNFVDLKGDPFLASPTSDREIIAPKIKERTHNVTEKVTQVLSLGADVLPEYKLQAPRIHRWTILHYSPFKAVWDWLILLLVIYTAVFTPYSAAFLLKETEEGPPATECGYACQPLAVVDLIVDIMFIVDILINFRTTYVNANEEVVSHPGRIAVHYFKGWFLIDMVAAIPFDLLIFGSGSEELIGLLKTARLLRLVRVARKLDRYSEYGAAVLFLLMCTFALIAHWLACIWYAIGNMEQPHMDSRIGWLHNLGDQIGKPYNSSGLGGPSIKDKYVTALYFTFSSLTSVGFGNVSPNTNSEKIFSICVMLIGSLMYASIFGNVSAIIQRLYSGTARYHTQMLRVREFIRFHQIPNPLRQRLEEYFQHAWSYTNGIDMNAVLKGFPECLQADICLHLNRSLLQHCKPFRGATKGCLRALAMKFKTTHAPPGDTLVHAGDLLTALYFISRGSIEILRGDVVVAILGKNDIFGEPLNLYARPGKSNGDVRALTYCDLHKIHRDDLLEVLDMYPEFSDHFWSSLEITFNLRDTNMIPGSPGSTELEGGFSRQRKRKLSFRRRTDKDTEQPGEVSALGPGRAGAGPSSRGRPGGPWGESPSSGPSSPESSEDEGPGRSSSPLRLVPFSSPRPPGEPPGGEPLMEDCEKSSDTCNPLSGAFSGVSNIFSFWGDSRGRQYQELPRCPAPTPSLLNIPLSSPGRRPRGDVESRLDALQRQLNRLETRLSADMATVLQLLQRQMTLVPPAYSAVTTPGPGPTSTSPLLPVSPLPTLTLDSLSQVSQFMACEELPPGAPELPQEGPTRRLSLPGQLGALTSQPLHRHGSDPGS
Procedure: 10 mL extracellular solution was used to dilute the stock solution, making the final concentrations of test compound were 0.3 μM, 1 μM, 3 μM, 10 μM and 30 μM.
The solubility of compound was visually observed.
The cell line was derived from HEK-293 cells, and grown in a humidified environment at 37° C. under 5% CO2, using the media formulation below. The cell line should not be allowed to exceed 80% confluence within the culture vessel to prevent contact inhibition causing senescence and should thus be passaged every 3/4 days using a seeding density of 2*10^6 cells per T175 flask. Cell lines were be pre-washed with phosphate buffered saline before harvesting with Trypsin/EDTA and seeded into new flasks.
HEK 293 cells expressed with hERG were plated on cover slips overnight with the cell density less than 50% of confluence. Cells used for electrophysiological study were transferred to a small cell bath (1 mL) mounted on the stage of an inverted microscope (Diaphot, Nikon) and were perfused with external solution containing (in mM) 130 NaCl, 4 KCl, 1.8 CaCl2), 1 MgCl2, 10 glucose and 10 HEPES (pH 7.4 with NaOH), the perfusion rate was 4 mL/min. The internal pipette solution contained (in mM) 130 KCl, 1 MgCl2, 5 ethylene glycol-bis(baminoethyl ether)-N,N,N8,N8-tetraacetic acid, 5 MgATP and 10 HEPES (pH 7.2 with KOH). An HEKA EPC-10 patch-clamp amplifier and PATCHMASTER acquisition program were used to record membrane currents (HEKA Instruments IncD-67466 Lambrecht/Pfalz Germany). All experiments were performed at room temperature (22-23° C.).
The Model P-97 micropipette puller (Sutter Instrument Company, One Digital Drive, Novato, Calif. 94949) was used to pull glass patch pipettes (BF150-86-10) in all experiments.
The experiments were initiated with a 2 min vehicle control period after forming a whole cell configuration with less 5% run-down in 5 min and the tail currents in the report were at least greater than 500 pA. After a 2 min vehicle control period, the perfusion was switched to the reservoir containing the compound at the first concentration. The same procedure was repeated 3-5 times so that each cell was exposed to 4-6 escalating concentrations of compound. The time courses for block and unblock of hERG during compounds exposure and washout were continuously recorded.
The peak tail of hERG was generated by applying 2-sec depolarizing every 12 sec steps from a holding potential of −80 mV, the peak of tail currents were measured at a 5-sec repolarizing pulse at −50 mV.
hERG peak tail currents were directly measured from a 5 sec repolarization pulse at −50 mV. The fraction of control current was plotted as a function of logarithm of compound concentration. To determine the concentration of compound for halfmaximum effect, the concentration-response curve was fitted by Hill equation as shown follow.
where Y is the observed value, Bottom is the lowest observed value (0), Top is the highest observed value (1), and the Hillcoefficient gives the largest absolute value of the slope of the curve.
Data were analyzed by a combination of PATCHMASTER ((HEKA Instruments IncD-67466 Lambrecht/Pfalz Germany) and Origin (OriginLab Corporation, Northampton, Mass.) software programs.
Data were expressed as mean±SEM.

[2] = target: T2, SHP2 (Homo sapiens, UniProt Q06124); assay: SHP2 allosteric inhibitor enzyme activity assay (DiFMUP fluorescence); type: biochemical
T2 sequence (Q06124 1-593): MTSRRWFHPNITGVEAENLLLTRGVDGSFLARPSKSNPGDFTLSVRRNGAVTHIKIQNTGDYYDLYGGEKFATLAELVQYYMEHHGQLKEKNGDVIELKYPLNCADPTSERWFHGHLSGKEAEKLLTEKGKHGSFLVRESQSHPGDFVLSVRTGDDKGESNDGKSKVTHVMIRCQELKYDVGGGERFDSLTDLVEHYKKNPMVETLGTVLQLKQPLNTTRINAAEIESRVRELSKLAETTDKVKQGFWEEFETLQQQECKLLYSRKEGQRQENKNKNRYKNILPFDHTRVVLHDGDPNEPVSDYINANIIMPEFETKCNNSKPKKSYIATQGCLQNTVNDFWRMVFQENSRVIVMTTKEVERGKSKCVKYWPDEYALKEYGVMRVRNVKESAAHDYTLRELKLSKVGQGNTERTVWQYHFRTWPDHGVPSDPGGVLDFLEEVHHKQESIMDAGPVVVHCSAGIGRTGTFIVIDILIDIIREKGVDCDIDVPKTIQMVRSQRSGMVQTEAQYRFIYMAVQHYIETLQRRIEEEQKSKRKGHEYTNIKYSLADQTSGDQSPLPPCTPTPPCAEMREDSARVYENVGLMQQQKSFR
Procedure, shortened: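 SHP2 activated by 0.5 μM IRS1_pY1172(dPEG8)pY1222 peptide, 0.2 ng enzyme per well, 1 h at room temperature with compound (1 μM top, 3-fold series), then DiFMUP substrate 1 h. Buffer: 60 mM HEPES, 75 mM NaCl, 75 mM KCl, 0.05% BRIJ-35, 1 mM EDTA, 5 mM DTT. Fluorescence ex 340/em 450 nm; IC50 by variable-slope fit.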

[3] = test system: lung cancer NCI-H358 cell; assay: Cell proliferation assay (CellTiter-Glo), NCI-H358; type: cell-based; details: Homo sapiens, NCI-H358, 96 hrs, CTG, read-out: Compound on NCI-H358 cell IC50
Procedure: (§1) The effects of the compounds on the proliferation of leukemia MV-4-11 cell and lung cancer NCI-H358 cell were evaluated by in vitro cell test. The assay used in this study was the CELL TITER-GLO (CTG) luminescence assay, which can detect the number of living cells by quantitative determination of ATP. Because ATP is involved in a variety of enzymatic reactions in vivo and is an indicator of the metabolism of living cells, its content can directly reflects the number and state of cells. During the experiment, Celltiter-Glo™ reagent was added to the cell culture medium to measure the luminescence value. The luminescence value was proportional to the amount of ATP, which in turn was positively correlated with the number of living cells. Therefore, ATP content can be used to detect cell viability.
A bottle of NCI-H358 cells in logarithmic growth phase was taken, the cells were digested and resuspend, counted, and then the cell density was adjusted. After that, the cells were inoculated into a 96-well Ultra-Low Attachment Microplate (Corning #3474), 2000 cells were inoculated in each well, and the well plate was placed in an incubator at 37° C. and 5% CO2, and the compounds of the invention were added for conducting.
(§2) An appropriate amount of the compound of the invention was taken for cell treatment, and the final concentration of the compound from high to low was 1000 nM, 333.3 nM, 111.1 nM, 37.04 nM, 12.35 nM, 4.115 nM, 1.372 nm, 0.4572 nM, 0.1524 nM, 0 nM, respectively. The orifice plate was cultured in an incubator at 37° C. and 5% CO2. Only adding medium without adding cell hole was set as blank group. Compound concentration of 0 nM group was zero control group.
NCI-H358 cells were cultured for 96 hrs, then 50 μL CellTiter-Glo® Luminescent cell viability assay solution was added to each well, and the cells were gently shaken for 2 mins, and incubated at room temperature for 10 mins. The cell reaction system was transferred to 96-well Microplate (Corning #3917). The detection values of each well were read on the multi-functional microplate reader.
(§3) The inhibition rate is calculated according to the luminous value reading,
(§4) Inhibition rate %=(1−(administration group value−blank group value)/(control group value−blank group value)*100
(§5) The log (inhibitor) vs. response variable slope of GraphPad Prism was used to fit the dose-response curve and calculate the IC50 of compounds inhibiting cell proliferation.

[4] = test system: leukemia MV-4-11 cell; assay: Cell proliferation assay (CellTiter-Glo), MV-4-11; type: cell-based; details: Homo sapiens, MV4-11, MV-4-11, 120 hrs, CTG, read-out: Compound on MV-4-11 cell IC50
Procedure: as §1
A bottle of MV-4-11 cells in logarithmic growth phase was taken, the cells were collected, centrifuged, resuspend, counted, and then inoculated into 96-well Microplate (Corning #3917), with 4000 cells inoculated in each well. The plates were placed in an incubator at 37° C. and 5% CO2 for 24 hrs culture, and the compounds of the invention were added for conducting.
as §2
After cultured for 120 hrs, MV-4-11 cells were added with 50 μL CellTiter-Glo® Luminescent cell viability assay solution in each well, gently shaken for 2 mins, and incubated at room temperature for 10 mins. The detection values of each well were read on the multi-functional microplate reader.
as §3, §4, §5

| Compound | IC50 [1] [nM] | IC50 ([2]; numeric values) [nM] | IC50 ([2]; class symbols) [nM] | also measured |
| --- | --- | --- | --- | --- |
| N[C@@H]1c2ccccc2CC12CCN(c1nc3[nH]nc(C4(c5cccc(-n6cccn6)c5)CC4)c3c(=O)[nH]1)CC2 [Example 38, (S)-3-(1-(3-(1H-pyrazol-1-yl)phenyl)cyclopropyl)-6-(1-amino-1,3-dihydrospiro[indene-2,4′-piperidin]-1′-yl)-1,5-dihydro-4H-pyrazolo[3,4-d]pyrimidin-4-one] | 14200 | 3.1 |  |  |
| N[C@@H]1c2ccccc2CC12CCN(c1nc3[nH]nc(C4(n5cccn5)CC4)c3c(=O)[nH]1)CC2 [Example 255, (S)-3-(1-(1H-pyrazol-1-yl)cyclopropyl)-6-(1-amino-1,3-dihydrospiro[indene-2,4′-piperidin]-1′-yl)-1,5-dihydro-4H-pyrazolo[3,4-d]pyrimidin-4-one] | > 30000 |  |  |  |
| N[C@@H]1c2ccccc2CC12CCN(c1nc3[nH]nc(C4(c5ccccc5)CCC4)c3c(=O)[nH]1)CC2 [Example 90] | 4950 |  | ≤ 20 |  |
| COc1ccccc1C1(c2n[nH]c3nc(N4CCC5(CC4)Cc4ccccc4[C@H]5N)[nH]c(=O)c23)CC1 [Example 17, (S)-6-(1-amino-1,3-dihydrospiro[indene-2,4′-piperidin]-1′-yl)-3-(1-(2-methoxyphenyl)cyclopropyl)-1,5-dihydro-4H-pyrazolo[3,4-d]pyrimidin-4-one] |  |  | ≤ 20 | IC50 ([3]; class symbols): 20 to 60 nM; IC50 ([4]; class symbols): 20 to 60 nM |
| N[C@@H]1c2ccccc2CC12CCN(c1nc3[nH]nc(C4=CCOc5c(F)cccc54)c3c(=O)[nH]1)CC2 [Example 124] |  | 0.48 |  | IC50 ([3]; numeric values): 1.6 nM; IC50 ([4]; numeric values): 1.7 nM |
| N[C@@H]1c2ccccc2CC12CCN(c1nc3[nH]nc([C@H]4C[C@@H]4c4ccccc4)c3c(=O)[nH]1)CC2 [Example 185] | 590 | 0.48 |  |  |
| COc1cccc(C2(c3n[nH]c4nc(N5CCC6(CC5)Cc5ccccc5[C@H]6N)[nH]c(=O)c34)CC2)c1 [Example 18, (S)-6-(1-amino-1,3-dihydrospiro[indene-2,4′-piperidin]-1′-yl)-3-(1-(3-methoxyphenyl)cyclopropyl)-1,5-dihydro-4H-pyrazolo[3,4-d]pyrimidin-4-one] |  |  | ≤ 20 | IC50 ([3]; class symbols): ≤ 20 nM; IC50 ([4]; class symbols): ≤ 20 nM |
| CCC(c1ccccc1)c1n[nH]c2nc(N3CCC4(CC3)Cc3ccccc3[C@H]4N)[nH]c(=O)c12 (stereo partly drawn) [Example 217, 6-((S)-1-amino-1,3-dihydrospiro[indene-2,4′-piperidin]-1′-yl)-3-(1-phenylpropyl)-1,5-dihydro-4H-pyrazolo[3,4-d]pyrimidin-4-one] | 540 |  | ≤ 20 |  |
| CC(=O)c1cccc(C2(c3n[nH]c4nc(N5CCC6(CC5)Cc5ccccc5[C@H]6N)[nH]c(=O)c34)CC2)c1 [Example 223, (S)-3-(1-(3-acetylphenyl)cyclopropyl)-6-(1-amino-1,3-dihydrospiro[indene-2,4′-piperidin]-1′-yl)-1,5-dihydro-4H-pyrazolo[3,4-d]pyrimidin-4-one] |  |  | ≤ 20 | IC50 ([3]; numeric values): 11 nM; IC50 ([4]; numeric values): 2.8 nM |
| COc1ccc(C2(c3n[nH]c4nc(N5CCC6(CC5)Cc5ccccc5[C@H]6N)[nH]c(=O)c34)CC2)cc1OC [Example 221, (S)-6-(1-amino-1,3-dihydrospiro[indene-2,4′-piperidin]-1′-yl)-3-(1-(3,4-dimethoxyphenyl)cyclopropyl)-1,5-dihydro-4H-pyrazolo[3,4-d]pyrimidin-4-one] | > 30000 |  | ≤ 20 |  |
| N[C@@H]1c2ccccc2CC12CCN(c1nc3[nH]nc(C4(c5nc6ccccc6o5)CC4)c3c(=O)[nH]1)CC2 [Example 252, (S)-6-(1-amino-1,3-dihydrospiro[indene-2,4′-piperidin]-1′-yl)-3-(1-(benzo[d]oxazol-2-yl)cyclopropyl)-1,5-dihydro-4H-pyrazolo[3,4-d]pyrimidin-4-one] | 20900 |  | ≤ 20 |  |
| N[C@@H]1c2ccccc2CC12CCN(c1nc3[nH]nc(C4(c5cccc(O)c5)CC4)c3c(=O)[nH]1)CC2 [Example 42, (S)-6-(1-amino-1,3-dihydrospiro[indene-2,4′-piperidin]-1′-yl)-3-(1-(3-hydroxyphenyl)cyclopropyl)-1,5-dihydro-4H-pyrazolo[3,4-d]pyrimidin-4-one] | > 30000 | 1.9 |  |  |
